Reference: patent US9492460B2, “Carbazole compounds useful as bromodomain inhibitors” (Bristol-Myers Squibb Company, priority 2013, dated 2016)

The compounds below were run against T1, bromodomain BRD4 (44-168), BRD4 (333-460), and BRD4 (1-477 or 44-460) (Homo sapiens, UniProt O60885) (assay: Time Resolved Fluorescence Resonance Energy Transfer (TR-FRET) binding assay). Settings: one of the FRET assays described.
T1 construct: BRD4(44-168), BRD4(333-460), BRD4(44-460), BRD4(1-477), O60885-1; fused on or other part: N-terminal BirA biotinylation motif, biotinylated; The TVMV-cleavable His6 tag is removed, except in some BRD4(44-460) runs detected with anti-His terbium cryptate
For `Cc1noc(C)c1-c1cc(C(N)=O)c2c3cc(C(=O)N4CC(F)C4)ccc3n(Cc3ccc(Cl)c(F)c3)c2c1` [Example 86], the IC50 was less than 50 nM. With `Cc1noc(C)c1-c1cc(C(N)=O)c2c3ccc(C(C)(C)O)cc3n(C(c3ccc(F)cc3)C3CCOCC3)c2c1` (single isomer, unassigned) [Example 219, 2-(Dimethyl-1,2-oxazol-4-yl)-9-[(4-fluorophenyl)(oxan-4-yl)methyl]-7-(2-hydroxypropan-2-yl)-9H-carbazole-4-carboxamide] the IC50 was less than 50 nM. `Cc1noc(C)c1-c1cc(C(N)=O)c2c3cc(C(=O)N4CC(C)OC(C)C4)ccc3n(Cc3ccccc3)c2c1` (stereo not shown) [Example 69] was tested, and the IC50 was less than 50 nM. `Cc1noc(C)c1-c1cc(C(N)=O)c2c3cc(C(=O)N4CCCCC4C)ccc3n(Cc3ccccc3)c2c1` (stereo not shown) [Example 73] gave an IC50 of less than 50 nM. `CNC(=O)c1cc(-c2c(C)noc2C)cc2[nH]c3ccc(N4CCCOC4=O)cc3c12` [Example 168, 2-(3,5-dimethyl-4-isoxazolyl)-N-methyl-6-(2-oxo-1,3-oxazinan-3-yl)-9H-carbazole-4-carboxamide] was tested, and the IC50 was less than 500 nM. `Cc1noc(C)c1-c1cc(C(N)=O)c2c3cc(C(=O)N4CC(C)OC(C)C4)ccc3n(Cc3ncco3)c2c1` (stereo not shown) [Example 29] was tested, and the IC50 was less than 500 nM. For `Cc1noc(C)c1-c1cc(C(N)=O)c2c3cc(C(=O)N4CC(C)OC(C)C4)ccc3n(Cc3nccs3)c2c1` (stereo not shown) [Example 30], the IC50 was less than 50 nM. For `Cc1noc(C)c1-c1cc(C(N)=O)c2c3cc(C(=O)N4CCC(C)(C)C4)ccc3n(Cc3ccccc3)c2c1` [Example 58], the IC50 was less than 50 nM. With `Cc1noc(C)c1-c1ccc2c3cc(C(=O)N4CC(C)OC(C)C4)ccc3n(CC(C)C)c2c1` (stereo not shown) [Example 4] the IC50 was less than 500 nM. In the case of `Cc1noc(C)c1-c1cc(C(N)=O)c2c3cc(N)ccc3n(Cc3ccccc3)c2c1` [Example 135, 6-amino-9-benzyl-2-(3,5-dimethyl-4-isoxazolyl)-9H-carbazole-4-carboxamide], the IC50 is reported as less than 50 nM. Work on `Cc1noc(C)c1-c1cc(C(N)=O)c2c3cc(C(=O)N4CC(C)OC(C)C4)ccc3n(Cc3ccc(C#N)cc3)c2c1` (stereo not shown) [Example 37] yielded an IC50 of less than 50 nM. In the case of `Cc1noc(C)c1-c1cc(C(N)=O)c2c3cc(N4CCOC4=O)ccc3n(Cc3ccc(Cl)cc3)c2c1` [Example 162, 9-(4-chlorobenzyl)-2-(3,5-dimethyl-4-isoxazolyl)-6-(2-oxo-1,3-oxazolidin-3-yl)-9H-carbazole-4-carboxamide], the IC50 is reported as less than 50 nM. With `CCCNC(=O)c1cc(-c2c(C)noc2C)cc2c1c1cc(C(=O)N3CC(F)C3)ccc1n2Cc1ccc(F)cc1` [Example 124, 2-(3,5-dimethyl-4-isoxazolyl)-6-((3-fluoro-1-azetidinyl)carbonyl)-9-(4-fluorobenzyl)-N-propyl-9H-carbazole-4-carboxamide] the IC50 was less than 50 nM. In the case of `CC(=O)N(CCF)c1ccc2c(c1)c1c(C(N)=O)cc(-c3c(C)noc3C)cc1n2Cc1ccccc1` [Example 134, 6-(acetyl(2-fluoroethyl)amino)-9-benzyl-2-(3,5-dimethyl-4-isoxazolyl)-9H-carbazole-4-carboxamide], the IC50 is reported as less than 50 nM. Compound `COc1ccccc1Cn1c2ccc(C(=O)N3CCC(F)C3)cc2c2c(C(N)=O)cc(-c3c(C)noc3C)cc21` (stereo not shown) [Example 82] has an IC50 of less than 50 nM. Work on `Cc1noc(C)c1-c1cc(C(N)=O)c2c3cc(S(C)(=O)=O)ccc3n(Cc3ccccc3)c2c1` [Example 181, 9-benzyl-2-(3,5-dimethyl-4-isoxazolyl)-6-(methylsulfonyl)-9H-carbazole-4-carboxamide] yielded an IC50 of less than 50 nM. Compound `Cc1noc(C)c1-c1cc(C(N)=O)c2c3cc(C(=O)N4CC(C)OC(C)C4)ccc3n(Cc3cccc(Cl)c3)c2c1` (stereo not shown) [Example 34] has an IC50 of less than 50 nM. For `COc1ccccc1Cn1c2ccc(C(=O)N3CC(C)OC(C)C3)cc2c2c(C(N)=O)cc(-c3c(C)noc3C)cc21` (stereo not shown) [Example 40], the IC50 was less than 50 nM. With `Cc1noc(C)c1-c1cc(C(N)=O)c2c3cc(C(=O)N4CCC(C)CC4)ccc3n(Cc3ccccc3)c2c1` [Example 74] the IC50 was less than 50 nM.
